Structures can show the parent of a compound that is named as a salt.
test: in vitro; conditions: human, hek293t cells

Compound	viability at 48 h, 25 µM [%]
O=C(CCl)N1CCN(S(=O)(=O)c2ccc([N+](=O)[O-])cc2)CC1 [4-J07, 2-chloro-1-[4-(4-nitrobenzenesulfonyl)piperazin-1-yl]ethan-1-one]	-0.414
CN(C)S(=O)(=O)c1cccc(NC(=O)CCl)c1 [4-J08, 2-chloro-N-[3-(dimethylsulfamoyl)phenyl]acetamide]	0.946
O=C(CCl)Nc1ccc(Oc2ccccc2)cc1 [4-J09, 2-chloro-N-(4-phenoxyphenyl)acetamide]	-0.178
O=C(CCl)Nc1ccc(OC(F)F)cc1 [4-J10, 2-chloro-N-[4-(difluoromethoxy)phenyl]acetamide]	1.07
COc1ccc(C(NC(=O)CCl)c2ccccc2)cc1 (stereo not drawn) [4-J11, 2-chloro-N-[(4-methoxyphenyl)(phenyl)methyl]acetamide]	0.827
CCc1cc(SC#N)cc(CC)c1NC(=O)CCl [4-J12, 2-chloro-N-[4-(cyanosulfanyl)-2,6-diethylphenyl]acetamide]	84.8
CC(Cl)C(=O)NC(=O)NC1CCS(=O)(=O)C1 (stereo not drawn) [4-J13, 3-(2-chloropropanoyl)-1-(1,1-dioxo-1lambda6-thiolan-3-yl)urea]	94.7
O=C(CCl)NC(c1ccccc1)c1cccs1 (stereo not drawn) [4-J14, 2-chloro-N-[phenyl(thiophen-2-yl)methyl]acetamide]	1.95
Cc1ccc(NC(=O)C(C)Cl)cc1 (stereo not drawn) [4-J15, 2-chloro-N-(4-methylphenyl)propanamide]	92.1
CCOc1ccc(NC(=O)CCl)cc1S(=O)(=O)N1CCCC1 [4-J16, 2-chloro-N-[4-ethoxy-3-(pyrrolidine-1-sulfonyl)phenyl]acetamide]	1.41
CC(Cl)C(=O)Nc1ccc([N+](=O)[O-])cc1Cl (stereo not drawn) [4-J17, 2-chloro-N-(2-chloro-4-nitrophenyl)propanamide]	85.5
O=C(CCl)N(Cc1ccco1)C12CC3CC(CC(C3)C1)C2 [4-J18, N-(adamantan-1-yl)-2-chloro-N-[(furan-2-yl)methyl]acetamide]	1.5
COC(=O)c1c(NC(=O)CCl)sc2c1CCC(C(C)(C)C)C2 (stereo not drawn) [4-J19, methyl 6-tert-butyl-2-(2-chloroacetamido)-4,5,6,7-tetrahydro-1-benzothiophene-3-carboxylate]	69.6
O=C(CN1CCN(C(=O)CCl)CC1)Nc1ccc(F)cc1 [4-J20, 2-[4-(2-chloroacetyl)piperazin-1-yl]-N-(4-fluorophenyl)acetamide hydrochloride]	1.34
O=C(CCl)NCCc1nc2c(s1)CCCCC2 [4-J21, 2-chloro-N-(2-{4H,5H,6H,7H,8H-cyclohepta[d][1,3]thiazol-2-yl}ethyl)acetamide]	15
CN(C)S(=O)(=O)c1ccccc1CNC(=O)CCl [4-J22, 2-chloro-N-{[2-(dimethylsulfamoyl)phenyl]methyl}acetamide]	1.7
Cc1ccc(Oc2ccc(NC(=O)CCl)cc2)cc1 [4-K03, 2-chloro-N-[4-(4-methylphenoxy)phenyl]acetamide]	0.0354
Cc1cc(C)cc(-c2cc(NC(=O)CCl)n(-c3ccccc3)n2)c1 [4-K04, 2-chloro-N-[3-(3,5-dimethylphenyl)-1-phenyl-1H-pyrazol-5-yl]acetamide]	-0.323
CN(CC(=O)Nc1ccccc1C(F)(F)F)C(=O)CCl [4-K05, 2-chloro-N-methyl-N-({[2-(trifluoromethyl)phenyl]carbamoyl}methyl)acetamide]	0.506

Compound	viability at 48 h, 25 µM [%]
Cc1ccc2sc(N(Cc3ccccc3)C(=O)CCl)nc2c1C [4-K06, N-benzyl-2-chloro-N-(4,5-dimethyl-1,3-benzothiazol-2-yl)acetamide]	-0.0749
CCN(CC)S(=O)(=O)c1ccc(NC(=O)CCl)cc1 [4-K07, 2-chloro-N-[4-(diethylsulfamoyl)phenyl]acetamide]	0.364
CC(C)OC(=O)c1ccc(NC(=O)C(C)Cl)cc1 (stereo not drawn) [4-K08, propan-2-yl 4-(2-chloropropanamido)benzoate]	76.3
O=C(CCl)Nc1cc(Cl)cc(Cl)c1 [4-K09, 2-chloro-N-(3,5-dichlorophenyl)acetamide]	1.41
CC(Cl)C(=O)Nc1ccc2c(c1)OCCCO2 (stereo not drawn) [4-K10, 2-chloro-N-(3,4-dihydro-2H-1,5-benzodioxepin-7-yl)propanamide]	85.4
CC(C)C(NC(=O)CCl)c1ccccc1 (stereo not drawn) [4-K11, 2-chloro-N-(2-methyl-1-phenylpropyl)acetamide]	3.98
COc1cc([N+](=O)[O-])ccc1NC(=O)C(C)Cl (stereo not drawn) [4-K12, 2-chloro-N-(2-methoxy-4-nitrophenyl)propanamide]	91.3
CC(C)N(C)S(=O)(=O)c1ccc(NC(=O)CCl)cc1 [4-K13, 2-chloro-N-{4-[methyl(propan-2-yl)sulfamoyl]phenyl}acetamide]	1.64
CC(Cl)C(=O)NCCc1ccccc1 (stereo not drawn) [4-K14, 2-chloro-N-(2-phenylethyl)propanamide]	102
Cc1cc(N(CCC#N)C(=O)CCl)ccc1Cl [4-K15, 2-chloro-N-(4-chloro-3-methylphenyl)-N-(2-cyanoethyl)acetamide]	0.75
CC1CC(C)CN(S(=O)(=O)c2ccc(NC(=O)CCl)cc2)C1 (stereo not drawn) [4-K16, 2-chloro-N-{4-[(3,5-dimethylpiperidin-1-yl)sulfonyl]phenyl}acetamide]	0.265
CCC(NC(=O)CCl)c1ccc(C)cc1 (stereo not drawn) [4-K17, 2-chloro-N-[1-(4-methylphenyl)propyl]acetamide]	2.62
O=C(CCl)NC(c1ccc(F)cc1)c1cccs1 (stereo not drawn) [4-K18, 2-chloro-N-[(4-fluorophenyl)(thiophen-2-yl)methyl]acetamide]	0.21
COc1ccc(C(NC(=O)CCl)C2CC2)cc1 (stereo not drawn) [4-K19, 2-chloro-N-[cyclopropyl(4-methoxyphenyl)methyl]acetamide]	2.83
O=C(CCl)N1N=C(c2cccs2)CC1c1ccccc1O (stereo not drawn) [4-K20, 2-chloro-1-[5-(2-hydroxyphenyl)-3-(thiophen-2-yl)-4,5-dihydro-1H-pyrazol-1-yl]ethan-1-one]	-0.22
Cc1ccc(SCCNC(=O)CCl)cc1 [4-K21, 2-chloro-N-{2-[(4-methylphenyl)sulfanyl]ethyl}acetamide]	1.65
O=C(CCl)N1N=C(c2ccc3ccccc3c2)CC1c1ccccc1 (stereo not drawn) [4-K22, 2-chloro-1-[3-(naphthalen-2-yl)-5-phenyl-4,5-dihydro-1H-pyrazol-1-yl]ethan-1-one]	-0.201
CSc1ccccc1NC(=O)CN(C)C(=O)CCl [4-L03, 2-chloro-N-methyl-N-({[2-(methylsulfanyl)phenyl]carbamoyl}methyl)acetamide]	0.451
O=C(CCl)Nc1nc(-c2ccccc2)cs1 [4-L04, 2-chloro-N-(4-phenyl-1,3-thiazol-2-yl)acetamide]	-0.0639

Compound	viability at 48 h, 25 µM [%]
COc1ccc(NC(=O)c2ccccc2NC(=O)CCl)cc1 [4-L05, 2-(2-chloroacetamido)-N-(4-methoxyphenyl)benzamide]	0.046
Cc1ccc(S(=O)(=O)N2CCCCC2)cc1NC(=O)CCl [4-L06, 2-chloro-N-[2-methyl-5-(piperidine-1-sulfonyl)phenyl]acetamide]	0.53
Cc1ccc(NC(=O)CCl)cc1S(=O)(=O)N1CCOCC1 [4-L07, 2-chloro-N-[4-methyl-3-(morpholine-4-sulfonyl)phenyl]acetamide]	0.278
O=C(CCl)Nc1c(F)c(F)c(F)c(F)c1F [4-L08, 2-chloro-N-(2,3,4,5,6-pentafluorophenyl)acetamide]	1.92
CC(Cl)C(=O)Nc1ccc(SC(F)F)cc1 (stereo not drawn) [4-L09, 2-chloro-N-{4-[(difluoromethyl)sulfanyl]phenyl}propanamide]	71.9
CCOc1ccc2nc(NC(=O)CCl)sc2c1 [4-L10, 2-chloro-N-(6-ethoxy-1,3-benzothiazol-2-yl)acetamide]	0.621
O=C(CCl)NC(Cc1ccccc1)c1ccccc1 (stereo not drawn) [4-L11, 2-chloro-N-(1,2-diphenylethyl)acetamide]	0.317
O=C(CCl)N(Cc1cccs1)C1CCS(=O)(=O)C1 (stereo not drawn) [4-L12, 2-chloro-N-(1,1-dioxo-1lambda6-thiolan-3-yl)-N-[(thiophen-2-yl)methyl]acetamide]	1.65
CC(Cl)C(=O)Nc1cccc(Cl)c1Cl (stereo not drawn) [4-L13, 2-chloro-N-(2,3-dichlorophenyl)propanamide]	81.1
O=C(CCl)N(Cc1ccco1)c1ccccc1 [4-L14, 2-chloro-N-[(furan-2-yl)methyl]-N-phenylacetamide]	1.2
CCc1ccc(NC(=O)C(C)Cl)cc1 (stereo not drawn) [4-L15, 2-chloro-N-(4-ethylphenyl)propanamide]	76.6
O=C(CCl)NCC(=O)Nc1ccc(F)c(F)c1 [4-L16, 2-chloro-N-{[(3,4-difluorophenyl)carbamoyl]methyl}acetamide]	1.48
CC(Cl)C(=O)Nc1ccc(Cl)cc1Cl (stereo not drawn) [4-L17, 2-chloro-N-(2,4-dichlorophenyl)propanamide]	81.6
O=C(CCl)N(c1ccccc1)C1CCCCC1 [4-L18, 2-chloro-N-cyclohexyl-N-phenylacetamide]	0.523
Cc1cc(C(C)(C)C)cc(C)c1NC(=O)CCl [4-L19, N-(4-tert-butyl-2,6-dimethylphenyl)-2-chloroacetamide]	1.04
O=C(CCl)N1CCc2sccc2C1c1cccs1 (stereo not drawn) [4-L20, 2-chloro-1-[4-(thiophen-2-yl)-4H,5H,6H,7H-thieno[3,2-c]pyridin-5-yl]ethan-1-one]	-0.242
O=C(CCl)NCc1ccccc1OC(F)(F)F [4-L21, 2-chloro-N-{[2-(trifluoromethoxy)phenyl]methyl}acetamide]	0.623
O=C(CCl)Nc1nc(-c2cc(F)ccc2F)cs1 [4-L22, 2-chloro-N-[4-(2,5-difluorophenyl)-1,3-thiazol-2-yl]acetamide]	0.065
CCCc1cc(NC(=O)CCl)n(-c2ccccc2)n1 [4-M03, 2-chloro-N-(1-phenyl-3-propyl-1H-pyrazol-5-yl)acetamide]	0.483
